Results reported in ChEMBL document CHEMBL6178021, “Optimization of Tambjamines Active against Multiple Stages of Malaria Parasites” (J Med Chem, 2025).
≈ marks a conversion by molar mass, not a printed value.

Key:
[1] = system: Plasmodium yoelii; assay: Antimalarial activity against erythrocytic Plasmodium yoelii MRA-428 infected in CF1 mouse assessed as cured mouse at 50 mg/kg, po once daily for 4 days measured on day 28 day; type: functional, organism-based; details: time 4.0 day
[2] = system: Plasmodium falciparum; assay: microbe, parasite or virus in culture; details: Dd2, 72 h
Description: Antiplasmodial activity against asexual blood-stage Plasmodium falciparum Dd2 using 2% haematocrit and 0.2% parasitemia assessed as reduction in fluorescence measured after 72 hrs by Malaria SYBR Green I-based Fluorescence (MSF) assay

[3] = in vitro; details: mouse, liver microsomes
[4] = Metabolic stability in human liver microsomes assessed as half life measured up to 60 mins by LC/MS analysis; type: ADME, Microsome
[5] = system: MDR1 (human); assay: Apparent permeability across basolateral to apical side in MDCK transfected with human MDR1 cells incubated for 1 hr by LC-MS analysis; details: dog, MDCK-MDR1
[6] = Metabolic stability in mouse liver microsomes assessed as half life measured up to 60 mins by LC/MS analysis; type: ADME, Microsome
[7] = system: Plasmodium falciparum; assay: Antiplasmodial activity against asexual blood-stage Plasmodium falciparum Tm90-C2B using 2% haematocrit and 0.2% parasitemia assessed as reduction in fluorescence measured after 72 hrs by Malaria SYBR Green I-based Fluorescence (MSF) assay; type: functional, organism-based
[8] = system: MDR1 (human); assay: Efflux ratio, ratio of apparent permeability across apical to basolateral side over basolateral to apical side in MDCK transfected with human MDR1 cells incubated for 1 hr by LC-MS analysis; details: dog
[9] = system: Plasmodium falciparum; assay: microbe, parasite or virus in culture; details: D6, 72 h
Description: Antiplasmodial activity against asexual blood-stage Plasmodium falciparum D6 using 2% haematocrit and 0.2% parasitemia assessed as reduction in fluorescence measured after 72 hrs by Malaria SYBR Green I-based Fluorescence (MSF) assay

[10] = in vitro; details: human, liver microsomes
[11] = system: MDR1 (human); assay: Apparent permeability across apical to basolateral side in MDCK transfected with human MDR1 cells incubated for 1 hr by LC-MS analysis; details: dog, MDCK-MDR1
[12] = Solubility of the compound in potassium phosphate buffer at pH 7.4 by UV-vis spectroscopy; details: buffer
[13] = system: Plasmodium yoelii; assay: Antimalarial activity against erythrocytic Plasmodium yoelii MRA-428 infected in CF1 mouse assessed as reduction in parasitemia at 25 mg/kg, po once daily for 4 days measured on day 5; type: functional; set-up: scale not given: the % may be the effect or the level left; details: time 4 day
[14] = system: Plasmodium yoelii; assay: Antimalarial activity against erythrocytic Plasmodium yoelii MRA-428 infected in CF1 mouse assessed as reduction in parasitemia at 10 mg/kg, po once daily for 4 days measured on day 5; type: functional; set-up: scale not given: the % may be the effect or the level left; details: time 4 day
[15] = system: HepG2; assay: Cytotoxicity against human HepG2 cells assessed as cell viability measured after 48 hrs by MTT assay; type: toxicity, cell-based; details: hepg2
[16] = in vitro; details: human
Description: Selectivity index, ratio of IC50 for cytotoxicity against human HepG2 cells to IC50 for antiplasmodial activity against asexual blood-stage Plasmodium falciparum D6

[17] = system: Plasmodium yoelii; assay: Antimalarial activity against erythrocytic Plasmodium yoelii MRA-428 infected in CF1 mouse assessed as cured mouse at 25 mg/kg, po once daily for 4 days measured on day 28 day; type: functional, organism-based; details: time 4.0 day
[18] = system: Plasmodium yoelii; assay: Antimalarial activity against erythrocytic Plasmodium yoelii MRA-428 infected in CF1 mouse assessed as reduction in parasitemia at 50 mg/kg, po once daily for 4 days measured on day 5; type: functional; set-up: scale not given: the % may be the effect or the level left; details: time 4 day

IC50 [2] | microsomal CLint at 1 h [3] | half-life [4] | Papp B→A at 1 h [5] | half-life [6] | IC50 [7] | efflux ratio at 1 h [8] | IC50 [9] | microsomal CLint at 1 h [10] | Papp A→B at 1 h [11] | solubility [12] | SMILES | Activity [1] | Activity [13] | Activity [14] | IC50 [15] | selectivity ratio [16] | Activity [17] | Activity [18]
299 nM | 110 µL/min/mg | 14.4 min | 0.74 ×10⁻⁶ cm/s | 12.6 min | 405 nM | 8.4 | 367 nM | 96.4 µL/min/mg | 0.088 ×10⁻⁶ cm/s | 121 µM (≈ 43 µg/mL) | CCC1=C(CC)/C(=C/N[C@H]2CC[C@H](C(=O)OC)CC2)N=C1c1ccc[nH]1 | Not active; None Of The Mouse Cured Out Of Four Tested | – | – | – | – | – | –
35.6 nM | 94.7 µL/min/mg | 16.1 min | 2.78 ×10⁻⁶ cm/s | 14.6 min | 38.8 nM | 2.7 | 56.9 nM | 85.9 µL/min/mg | 1.02 ×10⁻⁶ cm/s | 199 µM (≈ 62.8 µg/mL) | COC1=C(OC)/C(=C/NC2CCCCCC2)N=C1c1ccc[nH]1 | – | 81.2% | 8.81% | 16.5 µM | 290 | – | –
49.6 nM | 5.49 µL/min/mg | 33.9 min | 0.52 ×10⁻⁶ cm/s | > 60 min | 32.7 nM | 0.43 | – | 40.8 µL/min/mg | 1.2 ×10⁻⁶ cm/s | 237 µM (≈ 86.1 µg/mL) | FC(F)(F)[C@H]1CC[C@H](N/C=C2\N=C(c3ccc[nH]3)C3=C2CCCC3)CC1 | Not active; One Mouse Cured Out Of Four | 100% | – | 12.4 µM | 366 | Not active; None Of The Mouse Cured Out Of Four Tested | 100%
8.4 nM | 49.8 µL/min/mg | 11.7 min | 0.85 ×10⁻⁶ cm/s | 27.9 min | 3.91 nM | 6.1 | – | 118 µL/min/mg | 0.14 ×10⁻⁶ cm/s | 114 µM (≈ 40.1 µg/mL) | C(/NC12C[C@H]3C[C@@H](C1)C[C@@H](C2)C3)=C1/N=C(c2ccc[nH]2)C2=C1OCCO2 | – | – | 0% | 3.76 µM | 444 | – | –
467 nM | 19.7 µL/min/mg | 24.5 min | 0.001 ×10⁻⁶ cm/s | > 60 min | 471 nM | 0.59 | 536 nM | 56.5 µL/min/mg | 0.002 ×10⁻⁶ cm/s | 30.7 µM (≈ 11.7 µg/mL) | CCC1=C(CC)/C(=C/NC2CCCCC2)N=C1c1cc2cc(Cl)ccc2[nH]1 | – | – | – | – | – | – | –
45.7 nM | 9.13 µL/min/mg | > 60 min | 0.001 ×10⁻⁶ cm/s | > 60 min | 55.9 nM | 0.59 | 41.9 nM | 6.19 µL/min/mg | 0.002 ×10⁻⁶ cm/s | 24.4 µM (≈ 10.5 µg/mL) | CCC1=C(CC)/C(=C/NC23C[C@H]4C[C@@H](C2)C[C@@H](C3)C4)N=C1c1cc2cc(OC)ccc2[nH]1 | – | 93.8% | 87.2% | 5.25 µM | 125 | – | –
188 nM | – | – | – | – | 310 nM | – | 130 nM | – | – | – | CCC1=C(CC)/C(=C/NC23C[C@H]4C[C@@H](C2)C[C@@H](C3)C4)N=C1c1ccccc1O | – | – | – | 12.2 µM | 93 | – | –
15.3 nM | 12.2 µL/min/mg | 52.1 min | 0.005 ×10⁻⁶ cm/s | > 60 min | 15.1 nM | 0.079 | – | 26.6 µL/min/mg | 0.059 ×10⁻⁶ cm/s | 10.7 µM (≈ 5.41 µg/mL) | COc1ccc(C2=C(c3ccc(OC)cc3)/C(=C/NC34C[C@H]5C[C@@H](C3)C[C@@H](C4)C5)N=C2c2ccc[nH]2)cc1 | – | – | – | 7.94 µM | 496 | – | –
157 nM | 134 µL/min/mg | 16.7 min | 1.1 ×10⁻⁶ cm/s | 10.3 min | 170 nM | 4.8 | – | 82.9 µL/min/mg | 0.23 ×10⁻⁶ cm/s | 383 µM (≈ 135 µg/mL) | COC(=O)[C@H]1CC[C@H](N/C=C2\N=C(c3ccc[nH]3)C3=C2CCCC3)CC1 | – | – | – | 19.9 µM | 334 | – | 100%
2.36 nM | 41.9 µL/min/mg | 25.6 min | 0.23 ×10⁻⁶ cm/s | 33 min | 13.1 nM | 0.85 | 5.88 nM | 54.1 µL/min/mg | 0.27 ×10⁻⁶ cm/s | 185 µM (≈ 57.2 µg/mL) | C[C@H]1CC[C@H](N/C=C2\N=C(c3ccc[nH]3)C3=C2CCCC3)CC1 | – | 41.2% | – | 7.77 µM | 1320 | – | 100%
11.9 nM | 82.8 µL/min/mg | 51.3 min | 1.3 ×10⁻⁶ cm/s | 16.7 min | 1.35 nM | 5.2 | 6.36 nM | 27 µL/min/mg | 0.25 ×10⁻⁶ cm/s | 131 µM (≈ 42.9 µg/mL) | CCc1ccc(C2=N/C(=C\NC3CCCCC3)C3=C2OCCO3)[nH]1 | – | 19.4% | 0% | 1.96 µM | 308 | – | –
1.33 nM | 91.8 µL/min/mg | 46.9 min | 0.002 ×10⁻⁶ cm/s | 15.1 min | 1.83 nM | – | 2.58 nM | 29.5 µL/min/mg | 2.85 ×10⁻⁶ cm/s | < 3.125 µM | CCC1=C(CC)/C(=C/NC23C[C@H]4C[C@@H](C2)C[C@@H](C3)C4)N=C1c1ccc(-c2ccccc2)[nH]1 | – | – | 0% | 2.06 µM | 800 | – | –
8.98 nM | – | > 60 min | 0.074 ×10⁻⁶ cm/s | > 60 min | 7.32 nM | 0.22 | 14.1 nM | – | 0.34 ×10⁻⁶ cm/s | 40 µM (≈ 15.4 µg/mL) | CCC1=C(CC)/C(=C/NC23C[C@H]4C[C@@H](C2)C[C@@H](C3)C4)N=C1c1ccc(Cl)[nH]1 | – | 90.7% | 23.2% | 4.44 µM | 315 | – | –
0.868 nM | 4.57 µL/min/mg | > 60 min | 0.008 ×10⁻⁶ cm/s | > 60 min | 3.99 nM | 0.21 | 2.08 nM | 11.7 µL/min/mg | 0.04 ×10⁻⁶ cm/s | 26.2 µM (≈ 12.3 µg/mL) | CCC1=C(CC)/C(=C/NC23C[C@H]4C[C@@H](C2)C[C@@H](C3)C4)N=C1c1ccc(Cc2ccc(OC)cc2)[nH]1 | – | – | 0% | 1.61 µM | 775 | – | –
5.37 nM | 110 µL/min/mg | 12.2 min | 0.016 ×10⁻⁶ cm/s | 12.1 min | 8.02 nM | 0.53 | 8.88 nM | 114 µL/min/mg | 0.03 ×10⁻⁶ cm/s | 12.4 µM (≈ 5.65 µg/mL) | CCC1=C(CC)/C(=C/NC23C[C@H]4C[C@@H](C2)C[C@@H](C3)C4)N=C1c1ccc(-c2ccc(OC)cc2)[nH]1 | – | – | 11.5% | 0.999 µM | 113 | – | –

SMILES | IC50 [2] | microsomal CLint at 1 h [3] | half-life [4] | Papp B→A at 1 h [5] | half-life [6] | IC50 [7] | efflux ratio at 1 h [8] | IC50 [9] | microsomal CLint at 1 h [10] | Papp A→B at 1 h [11] | solubility [12] | Activity [1] | Activity [13] | Activity [14] | IC50 [15] | selectivity ratio [16] | Activity [17] | Activity [18]
CCC1=C(CC)/C(=C/NC2CCCCCC2)N=C1c1ccc(Br)[nH]1 | 224 nM | 23.7 µL/min/mg | > 60 min | 0.001 ×10⁻⁶ cm/s | 58.5 min | 130 nM | 0.26 | 281 nM | 13 µL/min/mg | 0.004 ×10⁻⁶ cm/s | < 3.125 µM | – | – | – | – | – | – | –
CCC1=C(CC)/C(=C/NC2CCCCCC2)N=C1c1ccc(Cl)[nH]1 | 254 nM | 8.33 µL/min/mg | > 60 min | 0.076 ×10⁻⁶ cm/s | > 60 min | 180 nM | 0.4 | 460 nM | 22.2 µL/min/mg | 0.19 ×10⁻⁶ cm/s | 14.4 µM (≈ 4.98 µg/mL) | – | – | – | – | – | – | –
CCC1=C(CC)/C(=C/NC2CCCCC2)N=C1c1ccc(Cl)[nH]1 | 232 nM | 0.67 µL/min/mg | > 60 min | 0.12 ×10⁻⁶ cm/s | > 60 min | 202 nM | 0.17 | 391 nM | 8.01 µL/min/mg | 0.71 ×10⁻⁶ cm/s | 22.6 µM (≈ 7.5 µg/mL) | – | – | – | – | – | – | –
